According to ChEMBL document CHEMBL2062461 (Eur J Med Chem, 2012):

Legend:
Acetylcholinesterase [1] = target: T1, Acetylcholinesterase (Homo sapiens, UniProt P22303)
Description: Inhibition of human recombinant AChE using acetylthiocholine substrate preincubated for 5 mins before substrate addition by Ellman's method

Cholinesterase = Cholinesterase (Homo sapiens, UniProt P06276)
Description: Inhibition of human plasmatic BChE using butylthiocholne substrate preincubated for 5 mins before substrate addition by Ellman's method

Acetylcholinesterase [2] = target: T1, Acetylcholinesterase; remark: listed apart in the source
Description: Inhibition of human recombinant AChE assessed as dissociation constant for enzyme-inhibitor complex using acetylthiocholine substrate preincubated for 5 mins before substrate addition by Ellman's method

Acetylcholinesterase [3] = target: T1, Acetylcholinesterase; remark: listed apart in the source
Description: Inhibition of human recombinant AChE assessed as dissociation constant for enzyme-inhibitor-substrate complex using acetylthiocholine substrate preincubated for 5 mins before substrate addition by Ellman's method

Chain of Cholinesterase (P06276 whole entry): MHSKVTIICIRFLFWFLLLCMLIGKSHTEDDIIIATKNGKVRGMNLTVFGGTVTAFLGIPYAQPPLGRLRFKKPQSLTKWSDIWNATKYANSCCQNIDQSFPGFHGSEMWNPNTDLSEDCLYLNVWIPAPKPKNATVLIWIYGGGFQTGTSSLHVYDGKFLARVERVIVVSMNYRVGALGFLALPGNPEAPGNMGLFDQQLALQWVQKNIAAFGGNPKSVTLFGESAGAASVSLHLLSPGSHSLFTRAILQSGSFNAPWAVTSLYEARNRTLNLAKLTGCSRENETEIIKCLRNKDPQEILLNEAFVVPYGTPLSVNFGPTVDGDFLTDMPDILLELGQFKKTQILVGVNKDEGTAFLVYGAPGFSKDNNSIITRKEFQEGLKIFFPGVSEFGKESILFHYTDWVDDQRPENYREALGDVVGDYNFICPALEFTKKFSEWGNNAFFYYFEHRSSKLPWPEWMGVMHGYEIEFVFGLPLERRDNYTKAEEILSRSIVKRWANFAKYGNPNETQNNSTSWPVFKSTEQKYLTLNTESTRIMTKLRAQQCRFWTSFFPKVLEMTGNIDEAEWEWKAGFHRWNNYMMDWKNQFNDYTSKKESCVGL
T1 sequence (P22303 whole entry): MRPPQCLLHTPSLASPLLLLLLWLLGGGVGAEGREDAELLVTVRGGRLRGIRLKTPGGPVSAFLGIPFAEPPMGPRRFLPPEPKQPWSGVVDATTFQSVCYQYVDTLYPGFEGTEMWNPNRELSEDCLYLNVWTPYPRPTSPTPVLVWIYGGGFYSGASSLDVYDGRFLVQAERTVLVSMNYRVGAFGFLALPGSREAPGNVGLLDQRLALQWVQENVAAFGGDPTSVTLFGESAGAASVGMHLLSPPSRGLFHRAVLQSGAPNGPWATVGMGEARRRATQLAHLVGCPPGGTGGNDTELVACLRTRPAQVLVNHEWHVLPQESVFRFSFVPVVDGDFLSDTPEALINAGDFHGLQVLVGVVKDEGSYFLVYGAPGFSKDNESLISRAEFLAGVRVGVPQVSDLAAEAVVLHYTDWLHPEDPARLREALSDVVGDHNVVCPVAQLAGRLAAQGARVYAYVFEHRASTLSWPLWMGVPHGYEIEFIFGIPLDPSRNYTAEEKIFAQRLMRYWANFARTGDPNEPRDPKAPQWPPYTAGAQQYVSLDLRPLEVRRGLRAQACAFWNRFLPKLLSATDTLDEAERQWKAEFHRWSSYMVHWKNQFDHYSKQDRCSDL

## CCN(CCCN1CCN(CCNc2c3c(nc4ccccc24)CCCC3)CC1)C1CCCCC1
Acetylcholinesterase [1]
  IC50: 0.194 µM
Cholinesterase
  IC50: 0.126 µM

## O=C(CCN1CCCCC1)N1CCN(CCNc2c3c(nc4ccccc24)CCCC3)CC1
Acetylcholinesterase [1]
  IC50: 0.0517 µM
Cholinesterase
  IC50: 0.0778 µM
Acetylcholinesterase [2]
  Ki: 0.0168 µM
Acetylcholinesterase [3]
  Ki: 0.0761 µM

## O=C(CCNCCNc1c2c(nc3ccccc13)CCCC2)N1CCN(CCNc2c3c(nc4ccccc24)CCCC3)CC1
Acetylcholinesterase [1]
  IC50: 0.00449 µM
Cholinesterase
  IC50: 1.52 µM

## CN(CCC(=O)N1CCN(CCNc2c3c(nc4ccccc24)CCCC3)CC1)C1CCCCC1
Acetylcholinesterase [1]
  IC50: 0.0149 µM
Cholinesterase
  IC50: 0.0637 µM
Acetylcholinesterase [2]
  Ki: 0.00038 µM
Acetylcholinesterase [3]
  Ki: 0.000318 µM

## CCN(CCC(=O)N1CCN(CCNc2c3c(nc4ccccc24)CCCC3)CC1)C1CCCCC1
Acetylcholinesterase [1]
  IC50: 0.00497 µM
Cholinesterase
  IC50: 0.0412 µM
Acetylcholinesterase [2]
  Ki: 0.00135 µM
Acetylcholinesterase [3]
  Ki: 0.00373 µM

## CN(CCCN1CCN(CCNc2c3c(nc4ccccc24)CCCC3)CC1)C1CCCCC1
Acetylcholinesterase [1]
  IC50: 0.0407 µM
Cholinesterase
  IC50: 0.137 µM
Acetylcholinesterase [2]
  Ki: 0.0103 µM
Acetylcholinesterase [3]
  Ki: 0.0476 µM

## CN(CCC(=O)N1CCN(CCNc2c3c(nc4ccccc24)CCCC3)CC1)c1ccccc1
Acetylcholinesterase [1]
  IC50: 0.0703 µM
Cholinesterase
  IC50: 0.0337 µM
Acetylcholinesterase [2]
  Ki: 0.0137 µM
Acetylcholinesterase [3]
  Ki: 0.0855 µM

## CN(CCCN1CCN(CCNc2c3c(nc4ccccc24)CCCC3)CC1)c1ccccc1
Acetylcholinesterase [1]
  IC50: 0.0848 µM
Cholinesterase
  IC50: 0.211 µM
Acetylcholinesterase [2]
  Ki: 0.08 µM
Acetylcholinesterase [3]
  Ki: 0.0247 µM
